The numbers were not newly measured in US7642353B2, “Process of making crystalline aripiprazole” (Synthon BV, priority 2004, dated 2010), which cites them from elsewhere.

The structures appear in SMILES notation.

For `O=C1CCc2ccc(OCCCCN3CCN(c4cccc(Cl)c4Cl)CC3)cc2N1` [Type I aripiprazole, 7-[4-[4-(2,3-dichlorophenyl)-1-piperazinyl]butoxy]-3,4-dihydrocarbostyril], the hygroscopicity entry (solid form, as taught by WO 03/26659) is recorded as “significantly hygroscopic”.

For `O=C1CCc2ccc(OCCCCN3CCN(c4cccc(Cl)c4Cl)CC3)cc2N1` [Anhydrous Form B, 7-[4-[4-(2,3-dichlorophenyl)-1-piperazinyl]butoxy]-3,4-dihydrocarbostyril], the water uptake entry (in 24 hours) is given as “less than 0.4%”.
